Experimental data published in patent US20140234364A1, “TOTAL SYNTHESIS AND IMM[…] […] OF THE LIPOPOLY[…] NEISSERIA MENINGITIDIS” (MAX-PLANCK-GESELLSCHAFT ZUR FÖRDERUNG DER WISSENSCHAFTEN …, priority 2011, published 2014).

System: female BALB/c mice
Test: Immunization of mice in presence of Freund's adjuvant, antibody responses in sera analyzed by glycan microarray
Format: in vivo
Method: To evaluate the immunogenicity of the meningococcal tetrasaccharide 1, two groups of six female BALB/c mice, six to eight weeks old, were immunized subcutaneously (s.c.) in presence of Freund's adjuvant (FA). Each mouse of the first group was immunized s.c. with 0.4 μg unconjugated tetrasaccharide 1 antigen in presence of Freund's adjuvant (priming with Freund's Complete Adjuvant, boosting with Freund's Incomplete Adjuvant, both Sigma). Each mouse of the second group received tetrasaccharide 1-CRM197 conjugate, whereby the amount of conjugate corresponded to 0.4 μg tetrasaccharide 1 antigen. Two weeks after initial immunizations, first boosting injection was performed with 4 μg tetrasaccharide 1 or the corresponding tetrasaccharide 1-CRM197 conjugate.
For all immunizations, antigen was diluted in sterile PBS to a total injection volume of 100 μL per mouse. Blood was collected at the tail vein and erythrocytes were separated from serum by centrifugation. All blood samples from the initial immunization study with FA were diluted with 10 μl sterile PBS before sera separation. Sera were collected in definited time intervals and IgG antibody responses were analyzed by microarray.
Tetrasaccharide 1 in three different concentrations (1, 0.5 and 0.1 mM), CRM197 (1, 0.5 and 0.1 μM) and bovine serum albumin (BSA)-spacer-GlcNAc conjugate (1, 0.5 and 0.1 μM) were dissolved in sodium phosphate buffer (50 mM, pH 8.5) and printed in triplicate robotically using a piezoelectric spotting device (S11, Scienion, Berlin, Germany) onto the surface of the microarray slides (NHS-activated glass slides; CodeLink). BSA-spacer-GlcNAc was used to assess immunogenicity against the spacer moiety of the conjugate. […]
The quenched array slides were blocked for 1 hour with 1% (w/v) BSA in PBS, then washed three times with PBS and dried by centrifugation. […] Then, slides were incubated with fluorescence-labeled detection antibody diluted in 1% BSA-PBS (w/v) for 1 hour at room temperature in a humid chamber. […]

CC(=O)NC1C(O)[C@H](O)C(CO)O[C@@H]1OC1C(O)[C@H](O)C([C@@H](O)CO)O[C@@H]1OC1C(O)[C@@H](O[C@@H]2C(O)C[C@](OCCCCCN)(C(=O)O)OC2[C@H](O)CO)OC([C@@H](O)CO)[C@H]1O (stereo partly drawn) [tetrasaccharide 1, 2-N-acetyl-2-deoxy-α-D-glucopyranosyl-(1→2)-L-glycero-α-D-manno-heptopyranosyl-(1→3)-L-glycero-α-D-manno-heptopyranosyl-(1→5)-2-(5-amino)pentyl-3-deoxy-α-D-manno-oct-2-ulopyranosidonic acid]
IgG antibody response, anti-tetrasaccharide 1 titers (fluorescence intensity) (1:80 sera dilution, after first boosting, Freund's adjuvant): relatively weak | Tetrasaccharide 1-specific IgG and IgM antibody responses in pooled sera (after first boosting with 4 μg (4. week), Freund's adjuvant): identified | IgG response one week after second boosting (second boost 4 μg antigen in week 8, read in week 9): marginal increase
